In patent publication US6737383B1, “Herbicidal oxadiazolidines” (priority 1999, dated 2004):

Columns and labels:
[1] = tested on: soybean; test: Test B pre/postemergence soybean; format: in vivo, Glycine max
Summary of the method: (§1)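 Response is a visual 0-to-10 score relative to untreated plants, where 0 means no effect and 10 means complete control, taken twelve to sixteen days after application. Treatments went onto soil at planting and onto foliage of 1- to 4-leaf plants, using a surfactant-containing non-phytotoxic solvent.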

[2] = tested on: surinam grass; test: Test B pre/postemergence surinam grass; format: in vivo, Brachiaria decumbens
Summary of the method: as §1

[3] = tested on: bedstraw; test: Test B pre/postemergence bedstraw; format: in vivo, Galium aparine; details: Preemergence
Summary of the method: as §1

[4] = tested on: sugar beet; test: Test B pre/postemergence sugar beet; format: in vivo, Beta vulgaris
Summary of the method: as §1

[5] = tested on: cocklebur; test: Test B pre/postemergence cocklebur; format: in vivo, Xanthium strumarium
Summary of the method: as §1

[6] = tested on: morningglory; test: Test B pre/postemergence morningglory; format: in vivo, Ipomoea hederacea
Summary of the method: as §1

[7] = tested on: corn; test: Test B pre/postemergence corn; format: in vivo, Zea mays
Summary of the method: as §1

[8] = tested on: giant foxtail; test: Test B pre/postemergence giant foxtail; format: in vivo, Setaria faberii
Summary of the method: as §1

[9] = tested on: pigweed; test: Test B pre/postemergence pigweed; format: in vivo, Amaranthus retroflexus
Summary of the method: as §1

[10] = tested on: blackgrass; test: Test B pre/postemergence blackgrass; format: in vivo, Alopecurus myosuroides
Summary of the method: as §1

[11] = tested on: velvetleaf; test: Test B pre/postemergence velvetleaf; format: in vivo, Abutilon theophrasti
Summary of the method: as §1

[12] = tested on: wild oat; test: Test B pre/postemergence wild oat; format: in vivo, Avena fatua
Summary of the method: as §1

[13] = tested on: bamyardgrass; test: Test B flood test barnyardgrass; format: in vivo, Echinochloa crus-galli
Summary of the method: (§2)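 Each value is a visual injury score relative to controls, with 10 meaning complete control and 0 no effect. Evaluation took place twelve to sixteen days after the 2-leaf-stage plants were treated and kept in the greenhouse.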

[14] = tested on: wheat; test: Test B pre/postemergence wheat; format: in vivo, Triticum aestivum
Summary of the method: as §1

[15] = tested on: rice; test: Test B flood test rice; format: in vivo, Oryza sativa
Summary of the method: as §2

[16] = tested on: crabgrass; test: Test B pre/postemergence crabgrass; format: in vivo, Digitaria sanguinalis
Summary of the method: as §1

[17] = tested on: rape; test: Test B pre/postemergence rape; format: in vivo, Brassica napus
Summary of the method: as §1

[18] = tested on: smallflower flatsedge; test: Test B flood test smallflower flatsedge; format: in vivo, Cyperus difformis
Summary of the method: as §2

[19] = tested on: duck salad; test: Test B flood test duck salad; format: in vivo, Heteranthera limosa
Summary of the method: as §2

[20] = tested on: purple nutsedge; test: Test B pre/postemergence purple nutsedge; format: in vivo, Cyperus rotundus
Summary of the method: as §1

[21] = Postemergence, Rate 62 g/ha, scale 0 to 10, 0 is no effect, 10 is complete control
[22] = Postemergence, Rate 500 g/ha, scale 0 (no effect) to 10 (complete control)
[23] = Rate 62 g/ha, Preemergence, scale 0 to 10
[24] = Rate 125 g/ha, Preemergence, scale 0 to 10 (0 no effect, 10 complete control)
[25] = Rate 250 g/ha, Postemergence, scale 0 to 10, 0 is no effect, 10 is complete control
[26] = Rate 500 g/ha, Preemergence, scale 0 to 10 (0 no effect, 10 complete control)
[27] = Postemergence, Rate 125 g/ha, scale of 0 to 10 where 0 is no effect and 10 is complete control
[28] = Preemergence, Rate 250 g/ha, scale 0 (no effect) to 10 (complete control)
[29] = Pre-emergence, Rate 62 g/ha, scale 0 to 10, 0 is no effect, 10 is complete control
[30] = Rate 125 g/ha, Pre-emergence section (flood test species), scale 0 to 10, 0 no effect, 10 complete control
[31] = Rate 250 g/ha, Pre-emergence (flood test species), scale 0 to 10, 0 is no effect, 10 is complete control
[32] = Rate 500 g/ha, Pre-emergence section of Table B, 0 to 10 scale (0 no effect, 10 complete control)

## CC(C)N(C(=O)n1oc(=O)n(CC2=NOCCO2)c1=O)c1ccc(F)cc1 [Compound 765]
[1]; [21]
  Plant response rating, Soybean: 2
[1]; [22]
  Soybean plant response rating: 5
[1]; [23]
  Soybean plant response rating: 0
[1]; [24]
  Soybean plant response rating: 0
[1]; [25]
  Soybean plant response rating: 5
[1]; [26]
  Soybean plant response rating: 0
[2]; [21]
  Plant response rating, B. signalgrass: 3
[2]; [27]
  B. signalgrass plant response rating: 7
[2]; Preemergence, Rate 62 g/ha, scale of 0 to 10 where 0 is no effect and 10 is complete control
  B. signalgrass plant response rating: 5
[2]; [28]
  B. signalgrass plant response rating: 7
[2]; [25]
  B. signalgrass plant response rating: 7
[2]; Rate 500 g/ha, Postemergence, scale 0 to 10, 0 is no effect, 10 is complete control
  B. signalgrass plant response rating: 8
[2]; [26]
  B. signalgrass plant response rating: 7
[3]; Rate 250 g/ha, scale 0 (no effect) to 10 (complete control)
  Bedstraw plant response rating: 2
[3]; Rate 62 g/ha, scale 0 to 10
  Bedstraw plant response rating: 0
[3]; Rate 500 g/ha, scale 0 to 10 (0 no effect, 10 complete control)
  Bedstraw plant response rating: 8
[4]; [21]
  Plant response rating, Sugarbeets: 0
[4]; [22]
  Sugarbeets plant response rating: 4
[4]; [23]
  Sugarbeets plant response rating: 6
[4]; [25]
  Sugarbeets plant response rating: 0
[4]; [26]
  Sugarbeets plant response rating: 9
[5]; [21]
  Plant response rating, Cocklebur: 0
[5]; [27]
  Cocklebur plant response rating: 0
[5]; [22]
  Cocklebur plant response rating: 3
[5]; [28]
  Cocklebur plant response rating: 0
[5]; [23]
  Cocklebur plant response rating: 0
[5]; [24]
  Cocklebur plant response rating: 0
[5]; [25]
  Cocklebur plant response rating: 0
[5]; [26]
  Cocklebur plant response rating: 0
[6]; [21]
  Plant response rating, Morningglory: 5
[6]; [27]
  Morningglory plant response rating: 6
[6]; [22]
  Morningglory plant response rating: 8
[6]; [23]
  Morningglory plant response rating: 0
[6]; [24]
  Morningglory plant response rating: 0
[6]; [25]
  Morningglory plant response rating: 6
[6]; [26]
  Morningglory plant response rating: 0
[7]; [21]
  Plant response rating, Corn: 0
[7]; [27]
  Corn plant response rating: 0
[7]; [22]
  Corn plant response rating: 3
[7]; [28]
  Corn plant response rating: 0
[7]; [23]
  Corn plant response rating: 0
[7]; [24]
  Corn plant response rating: 0
[7]; [25]
  Corn plant response rating: 0
[7]; [26]
  Corn plant response rating: 2
[8]; [21]
  Plant response rating, Giant foxtail: 5
[8]; [27]
  Giant foxtail plant response rating: 8
[8]; [22]
  Giant foxtail plant response rating: 9
[8]; [28]
  Giant foxtail plant response rating: 10
[8]; [23]
  Giant foxtail plant response rating: 9
[8]; [24]
  Giant foxtail plant response rating: 10
[8]; [25]
  Giant foxtail plant response rating: 9
[8]; [26]
  Giant foxtail plant response rating: 10
[9]; [21]
  Plant response rating, Redroot pigweed: 6
[9]; [27]
  Redroot pigweed plant response rating: 7
[9]; [22]
  Redroot pigweed plant response rating: 8
[9]; [23]
  Redroot pigweed plant response rating: 8
[9]; [26]
  Redroot pigweed plant response rating: 10
[10]; [21]
  Plant response rating, Blackgrass: 3
[10]; [27]
  Blackgrass plant response rating: 5
[10]; [22]
  Blackgrass plant response rating: 7
[10]; [28]
  Blackgrass plant response rating: 8
[10]; [23]
  Blackgrass plant response rating: 7
[10]; [25]
  Blackgrass plant response rating: 7
[10]; [26]
  Blackgrass plant response rating: 9
[11]; [21]
  Plant response rating, Velvetleaf: 6
[11]; [22]
  Velvetleaf plant response rating: 7
[11]; [23]
  Velvetleaf plant response rating: 0
[11]; [24]
  Velvetleaf plant response rating: 4
[11]; [25]
  Velvetleaf plant response rating: 7
[11]; [26]
  Velvetleaf plant response rating: 7
[12]; [21]
  Plant response rating, Wild oats: 0
[12]; [22]
  Wild oats plant response rating: 2
[12]; [23]
  Wild oats plant response rating: 4
[12]; [25]
  Wild oats plant response rating: 0
[12]; [26]
  Wild oats plant response rating: 9
[13]; [29]
  Barnyardgrass plant response rating: 0
[13]; [30]
  Barnyardgrass plant response rating: 0
[13]; [31]
  Barnyardgrass plant response rating: 0
[13]; [32]
  Barnyardgrass plant response rating: 0
[14]; [21]
  Plant response rating, Wheat: 0
[14]; [22]
  Wheat plant response rating: 5
[14]; [23]
  Wheat plant response rating: 3
[14]; [25]
  Wheat plant response rating: 3
[14]; [26]
  Wheat plant response rating: 8
[15]; [29]
  Rice plant response rating: 0
[15]; [30]
  Rice plant response rating: 0
[15]; [31]
  Rice plant response rating: 0
[15]; [32]
  Rice plant response rating: 0
[16]; [21]
  Plant response rating, Crabgrass: 3
[16]; [27]
  Crabgrass plant response rating: 5
[16]; [22]
  Crabgrass plant response rating: 9
[16]; [28]
  Crabgrass plant response rating: 10
[16]; [23]
  Crabgrass plant response rating: 9
[16]; [24]
  Crabgrass plant response rating: 10
[16]; [25]
  Crabgrass plant response rating: 7
[16]; [26]
  Crabgrass plant response rating: 10
[17]; [21]
  Plant response rating, Rape: 0
[17]; [27]
  Rape plant response rating: 0
[17]; [22]
  Rape plant response rating: 1
[17]; [23]
  Rape plant response rating: 2
[17]; [25]
  Rape plant response rating: 0
[17]; [26]
  Rape plant response rating: 8
[18]; [29]
  S. Flatsedge plant response rating: 0
[18]; [30]
  S. Flatsedge plant response rating: 0
[18]; [31]
  S. Flatsedge plant response rating: 0
[18]; [32]
  S. Flatsedge plant response rating: 0
[19]; [29]
  Ducksalad plant response rating: 0
[19]; [30]
  Ducksalad plant response rating: 0
[19]; [31]
  Ducksalad plant response rating: 0
[19]; [32]
  Ducksalad plant response rating: 0
[20]; [21]
  Plant response rating, Nutsedge: 0
[20]; [27]
  Nutsedge plant response rating: 0
[20]; [22]
  Nutsedge plant response rating: 3
[20]; [23]
  Nutsedge plant response rating: 0
[20]; [25]
  Nutsedge plant response rating: 0
[20]; [26]
  Nutsedge plant response rating: 0
